Five molecules from article PMC4532999 (Scientific Reports, 2015) can be followed below.

By fraction remaining is commonly meant what is left of the initial amount, in per cent. A lower fraction remaining goes with more turnover.

Positions of bridges follow the written chain, without caps; N, C: chain ends. Residues, ends and D or L forms follow the SMILES beside them.

One data set in a line: Serum stability assay. The settings on record: for stability in human serum (in words; comparison to MCoTI-II at 24 h): 100% human serum, 37 °C, one-way ANOVA, three replicates; for remaining at 24 h, 30 μM: male, human, serum. The protocol: All peptides were tested at a final concentration of 30 μM in 100% human serum. […] Reactions were stopped at the stipulated times and the serum proteins in each sample were denatured and precipitated, followed by centrifugation at 17,000 g for 10 min to separate the serum proteins from peptide samples. […] The elution time for each peptide was determined by the PBS control from 0 time point. The percentage of peptide remaining at each time point was calculated using the height of the serum-treated peptide peak from time 0 as 100% recovery.

The test system of the next data set is HeLa cells. The protocol: Since BCR-ABL localizes predominantly in the cytoplasm, it is important to evaluate whether the designed peptides can be internalized into cells.
Human cervical cancer cells (HeLa) were seeded in 175-cm^2 tissue culture flasks (Falcon), in Dulbecco’s Modified Eagle’s Medium (DMEM) supplemented with 10% fetal bovine serum, 100 U/mL penicillin and […] streptomycin, until 80% confluent.
Cytotoxicity of the MTAbl peptides towards HeLa cells was evaluated before the cell internalization assay. The mammalian cell cytotoxicity assay was conducted using a method described earlier. HeLa cells were seeded the day before the assay in 96-well tissue culture-treated plates (2.5 × 10^3 cells/well). […] Peptide solutions were diluted 10-fold with serum-free medium and incubated with cells in triplicates for 2 h. […] Following incubation the peptide solutions were removed and aliquots of 10 μL of 0.02% (w/v) sterile resazurin (resazurin sodium salt, Sigma) were added to each well containing 100 μL of fresh medium. […] The absorbance of the plates was measured on a plate reader at 540 and 620 nm.

The next data set has as its target Abl kinase (Homo sapiens, UniProt P00519). The experiment in a line: BacKin assay, inhibition of phosphorylation of abltide displayed on E. coli. As to conditions: 32 μM peptide, Abl kinase 0.2 U/mL, 37 °C, 30 min. It counts as biochemical.
Data set [1] is described as follows: 100% human male AB serum (Sigma). The settings on record: 37 °C, up to 24 h.

Abl kinase, sequence (P00519 whole entry): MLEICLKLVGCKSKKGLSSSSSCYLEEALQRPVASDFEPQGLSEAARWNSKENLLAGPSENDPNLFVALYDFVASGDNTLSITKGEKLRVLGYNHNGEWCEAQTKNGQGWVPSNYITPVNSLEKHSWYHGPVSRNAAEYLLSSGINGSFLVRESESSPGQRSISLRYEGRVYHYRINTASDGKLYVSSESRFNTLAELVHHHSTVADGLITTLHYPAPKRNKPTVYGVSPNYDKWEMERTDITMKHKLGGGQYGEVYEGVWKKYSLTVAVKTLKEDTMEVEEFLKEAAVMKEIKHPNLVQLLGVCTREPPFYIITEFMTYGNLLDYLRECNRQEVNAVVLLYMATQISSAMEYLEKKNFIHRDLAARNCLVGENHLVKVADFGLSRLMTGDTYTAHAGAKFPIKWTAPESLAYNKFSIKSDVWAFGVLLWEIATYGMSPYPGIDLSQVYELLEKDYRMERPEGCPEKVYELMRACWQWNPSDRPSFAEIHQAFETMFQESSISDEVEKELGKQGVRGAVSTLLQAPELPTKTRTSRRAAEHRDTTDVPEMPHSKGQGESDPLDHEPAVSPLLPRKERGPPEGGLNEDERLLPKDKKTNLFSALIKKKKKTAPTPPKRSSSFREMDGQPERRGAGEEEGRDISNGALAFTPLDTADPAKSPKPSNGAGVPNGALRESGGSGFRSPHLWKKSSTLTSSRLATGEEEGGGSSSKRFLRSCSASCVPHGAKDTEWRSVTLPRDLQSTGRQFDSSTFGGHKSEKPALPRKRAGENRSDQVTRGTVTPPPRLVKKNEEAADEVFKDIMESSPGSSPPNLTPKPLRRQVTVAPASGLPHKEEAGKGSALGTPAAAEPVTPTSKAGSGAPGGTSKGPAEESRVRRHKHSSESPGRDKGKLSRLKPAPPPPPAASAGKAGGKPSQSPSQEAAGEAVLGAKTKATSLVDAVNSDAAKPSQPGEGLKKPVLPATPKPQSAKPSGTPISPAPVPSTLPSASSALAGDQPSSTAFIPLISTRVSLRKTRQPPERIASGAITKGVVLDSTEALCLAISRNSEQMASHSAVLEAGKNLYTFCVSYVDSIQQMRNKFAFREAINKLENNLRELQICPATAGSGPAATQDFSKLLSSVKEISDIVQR

As for `CC[C@H](C)[C@@H]1NC(=O)[C@H](C)NC(=O)[C@H](CCC(=O)O)NC(=O)CNC(=O)[C@@H]2CSSC[C@@H]3NC(=O)[C@H](CC(=O)O)NC(=O)[C@H](CO)NC(=O)[C@H](CC(=O)O)NC(=O)[C@H](CCCNC(=N)N)NC(=O)[C@H](CCCNC(=N)N)NC(=O)[C@@H]4CSSC[C@H](NC(=O)[C@H]([C@@H](C)CC)NC(=O)[C@H](CSSC[C@H](NC(=O)[C@H](CCCNC(=N)N)NC(=O)[C@H](C)NC(=O)[C@H](Cc5ccccc5)NC(=O)[C@@H]5CCCN5C(=O)[C@H](C)NC(=O)[C@H](C)NC(=O)[C@H](Cc5ccc(O)cc5)NC1=O)C(=O)N[C@@H](CCC(=O)O)C(=O)N[C@@H](C)C(=O)N[C@@H]([C@@H](C)CC)C(=O)N[C@@H](Cc1ccc(O)cc1)C(=O)N[C@@H](C)C(=O)N[C@@H](C)C(=O)N1CCC[C@H]1C(=O)N[C@@H](CCCCN)C(=O)N4)NC(=O)[C@H](C)NC(=O)CNC(=O)[C@@H]1CCCN1C3=O)C(=O)N[C@@H](CCCNC(=N)N)C(=O)NCC(=O)N[C@@H](CC(N)=O)C(=O)NCC(=O)N[C@@H](Cc1ccc(O)cc1)C(=O)N2` [MTAbl13] (cyclo(AAPFARCEAIYAAPKCRRDSDCPGACICRGNGYCGEAIY); disulfide 7-26, 16-28, 22-34), in the data set “Serum stability assay”, the “stability in human serum (in words; comparison to MCoTI-II at 24 h)” value (“stability in human serum” for short) is reported as “statistically more stable than MCoTI-II” and the amount remaining at 24 h, 30 μM was more than 75%. The “concentration up to which no cytotoxicity towards HeLa cells” value with HeLa cells is more than 64 µM.

`CC[C@H](C)[C@@H]1NC(=O)[C@H](C)NC(=O)[C@H](CCC(=O)O)NC(=O)CNC(=O)[C@@H]2CSSC[C@@H]3NC(=O)[C@H](CC(=O)O)NC(=O)[C@H](CO)NC(=O)[C@H](CC(=O)O)NC(=O)[C@H](CCCNC(=N)N)NC(=O)[C@H](CCCNC(=N)N)NC(=O)[C@@H]4CSSC[C@H](NC(=O)[C@H]([C@@H](C)CC)NC(=O)[C@H](CSSC[C@H](NC(=O)[C@H](CCCNC(=N)N)NC(=O)[C@H](C)NC(=O)[C@H](Cc5ccccc5)NC(=O)[C@@H]5CCCN5C(=O)[C@H](C)NC(=O)[C@H](C)NC(=O)[C@H](Cc5ccc(O)cc5)NC1=O)C(=O)N1CCC[C@H]1C(=O)N[C@@H](CCCCN)C(=O)N[C@@H]([C@@H](C)CC)C(=O)N[C@@H](CC(C)C)C(=O)N[C@@H](CCCCN)C(=O)N[C@@H](CCCCN)C(=O)N4)NC(=O)[C@H](C)NC(=O)CNC(=O)[C@@H]1CCCN1C3=O)C(=O)N[C@@H](CCCNC(=N)N)C(=O)NCC(=O)N[C@@H](CC(N)=O)C(=O)NCC(=O)N[C@@H](Cc1ccc(O)cc1)C(=O)N2` [MTAbl06] (cyclo(AAPFARCPKILKKCRRDSDCPGACICRGNGYCGEAIY); disulfide 7-24, 14-26, 20-32) displayed a share remaining at 24 h, 30 μM in “Serum stability assay” of more than 75%. The “concentration up to which no cytotoxicity towards HeLa cells” value in the data set on HeLa cells is more than 64 µM. Also, the “percentage of Abl kinase inhibition” value at Abl kinase is reported as ~ 90%.

Take `CC[C@H](C)[C@@H]1NC(=O)[C@H](C)NC(=O)[C@H](CCC(=O)O)NC(=O)[C@@H]2CSSC[C@@H]3NC(=O)[C@H](C)NC(=O)CNC(=O)[C@@H]4CCCN4C(=O)[C@@H]4CSSC[C@H](NC(=O)[C@H](Cc5ccc(O)cc5)NC(=O)CNC(=O)[C@H](CC(N)=O)NC(=O)CNC(=O)[C@H](CCCNC(=N)N)NC(=O)[C@H](CSSC[C@H](NC(=O)[C@H](CCCCN)NC(=O)[C@@H]5CCCN5C(=O)[C@H](C)NC(=O)[C@H](C)NC(=O)[C@H](Cc5ccc(O)cc5)NC1=O)C(=O)N[C@@H](CCCNC(=N)N)C(=O)N[C@@H](CCCNC(=N)N)C(=O)N[C@@H](CC(=O)O)C(=O)N[C@@H](CO)C(=O)N[C@@H](CC(=O)O)C(=O)N4)NC(=O)[C@H]([C@@H](C)CC)NC3=O)C(=O)NCC(=O)N[C@@H](CO)C(=O)NCC(=O)N[C@@H](CO)C(=O)N[C@@H](CC(=O)O)C(=O)NCC(=O)NCC(=O)N[C@@H](C(C)C)C(=O)N2` [MTAbl09] (cyclo(AAPKCRRDSDCPGACICRGNGYCGSGSDGGVCEAIY); disulfide 5-17, 11-23, 15-32): in “Serum stability assay”, the “stability in human serum” value is given as “statistically more stable than MCoTI-II” and the amount remaining at 24 h, 30 μM was more than 75%. For the same molecule, the “concentration up to which no cytotoxicity towards HeLa cells” value in the data set with HeLa cells is more than 64 µM.

Take CPKILKKCRRDSDCPGACICRGNGYCGEAIY*AAPFAR: the fragment found entry in data set [1] is “MTAbl06 (i.e. dephosphorylated MTAbl12)”.

On to `CC[C@H](C)[C@@H]1NC(=O)[C@H](C)NC(=O)[C@H](CCC(=O)O)NC(=O)CNC(=O)[C@@H]2CSSC[C@@H]3NC(=O)[C@H](CC(=O)O)NC(=O)[C@H](CO)NC(=O)[C@H](CC(=O)O)NC(=O)[C@H](CCCNC(=N)N)NC(=O)[C@H](CCCNC(=N)N)NC(=O)[C@@H]4CSSC[C@H](NC(=O)[C@H]([C@@H](C)CC)NC(=O)[C@H](CSSC[C@H](NC(=O)[C@H](CCCNC(=N)N)NC(=O)[C@H](CCCNC(=N)N)NC(=O)[C@H](CCCNC(=N)N)NC(=O)[C@H](C)NC(=O)[C@H](Cc5ccccc5)NC(=O)[C@@H]5CCCN5C(=O)[C@H](C)NC(=O)[C@H](C)NC(=O)[C@H](Cc5ccc(O)cc5)NC1=O)C(=O)N1CCC[C@H]1C(=O)N[C@@H](CCCCN)C(=O)N[C@@H]([C@@H](C)CC)C(=O)N[C@@H](CC(C)C)C(=O)N[C@@H](CCCCN)C(=O)N[C@@H](CCCCN)C(=O)N4)NC(=O)[C@H](C)NC(=O)CNC(=O)[C@@H]1CCCN1C3=O)C(=O)N[C@@H](CCCNC(=N)N)C(=O)NCC(=O)N[C@@H](CC(N)=O)C(=O)NCC(=O)N[C@@H](Cc1ccc(O)cc1)C(=O)N2` [MTAbl07] (cyclo(AAPFARRRCPKILKKCRRDSDCPGACICRGNGYCGEAIY); disulfide 9-26, 16-28, 22-34), for which, in the data set “Serum stability assay”, the “stability in human serum” value is given as “as stable as MCoTI-II” and the share remaining at 24 h, 30 μM is more than 75%. Moreover, in the data set on HeLa cells, the “concentration up to which no cytotoxicity towards HeLa cells” value is more than 64 µM.
